Some test systems named below: SK-MEL-5 melanoma; SK-MEL-2 melanoma; SF-268 CNS; NCI/ADR-RES ovarian; COLO 205 colon; HCT-116 colon; NCI-H23 lung; UACC-62 melanoma; SF-539 CNS; ACHN renal.
Common to all, as to experiment: growth of human tumour cells (NCI), 48 h

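Exposure lasted 48 hours, with cells grown in 96-well plates and compounds tested at five concentrations. Abbreviation: GI50, concentration required for 50% inhibition of growth. TGI: total growth inhibition.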 Where only a bound is given, the exact number is not on record here.

For the compound `CCOCCOCCOCCOCCOCCOCCOCCOCCOCCO` (tested in a mixture with another compound), the GI50 with SK-MEL-5 melanoma was 0.586 µM; with SK-MEL-2 melanoma, 1.2 µM; in the assay with SF-268 CNS, 1.61 µM; with NCI/ADR-RES ovarian it was 3.96 µM; in the assay with COLO 205 colon, 1.28 µM; in the assay on HCT-116 colon it was 1.01 µM. The GI50 in the assay on NCI-H23 lung was 0.957 µM. Besides, the TGI in the assay with SK-MEL-5 melanoma is 1.81 µM; with SK-MEL-2 melanoma it was 3.81 µM; in the assay with SF-268 CNS, 20.8 µM; in the assay on NCI/ADR-RES ovarian, above 32.5 µM; in the assay on COLO 205 colon it was 4.23 µM; in the assay on HCT-116 colon, 4.68 µM. In the assay on NCI-H23 lung, the TGI came out at 5.32 µM.
On to `CC(=O)Nc1ccc(/C=c2\sc3nnc(-c4cccnc4)n3c2=O)cc1`, for which the TGI in the assay on SK-MEL-5 melanoma amounted to 37.8 µM; in the assay with UACC-62 melanoma, 27.7 µM; in the assay with SF-539 CNS, 33.3 µM; in the assay with SK-MEL-2 melanoma it was 46.4 µM; in the assay on SF-268 CNS, 60 µM; in the assay on COLO 205 colon, 29.8 µM. Besides, the TGI in the assay on ACHN renal was 26.9 µM; in the assay on HCT-116 colon, 28.9 µM; with NCI-H23 lung, 31.4 µM.
Regarding `Fc1ccc(Nc2nc(Nc3ccc(-c4nc5ccccc5[nH]4)cc3)c3cn[nH]c3n2)cc1`, the GI50 with SK-MEL-5 melanoma is 9.94 µM; in the assay on SF-539 CNS, 1.77 µM; in the assay with SK-MEL-2 melanoma, 2.11 µM; with SF-268 CNS, 2.11 µM; in the assay with NCI/ADR-RES ovarian, 2.11 µM; in the assay with COLO 205 colon, 1.75 µM. In addition, the GI50 was 2.05 µM in the assay on ACHN renal and 1.75 µM with HCT-116 colon. For the same compound, the TGI in the assay on SK-MEL-5 melanoma was determined as 21.9 µM; with SF-539 CNS, 3.48 µM; with SK-MEL-2 melanoma, 4.95 µM; in the assay on SF-268 CNS it was 5.4 µM; with NCI/ADR-RES ovarian, 5.04 µM; with COLO 205 colon, 3.67 µM. In addition, the TGI was 5.08 µM in the assay on ACHN renal and 3.58 µM in the assay with HCT-116 colon.
In the case of `O=C(N/C(=C\c1ccc(/C=C(\NC(=O)c2ccccc2)c2nc3c(O)nc(S)nc3[nH]2)cc1)c1nc2c(O)nc(S)nc2[nH]1)c1ccccc1`, the TGI in the assay with SK-MEL-5 melanoma, in the assay with UACC-62 melanoma, in the assay on SF-539 CNS, with SK-MEL-2 melanoma, in the assay with SF-268 CNS and in the assay with COLO 205 colon was above 100 µM throughout. The TGI with ACHN renal, in the assay on HCT-116 colon and in the assay with NCI-H23 lung was above 100 µM in each case.
On to `COc1cc(C(=O)O[C@H](C(=O)NCCCCNC(=O)[C@@H](OC(=O)c2cc(OC)cc3c(C)cccc23)[C@]2(C)CO2)[C@]2(C)CO2)c2cccc(C)c2c1`, for which the GI50 with SK-MEL-5 melanoma was 0.0203 µM; with UACC-62 melanoma, 1.5 µM; in the assay on SF-539 CNS, below 0.0385 µM; in the assay on SK-MEL-2 melanoma it was 0.0724 µM; in the assay with SF-268 CNS, 0.0101 µM; in the assay with NCI/ADR-RES ovarian it was 0.199 µM. For the same compound, the GI50 is 0.111 µM in the assay with COLO 205 colon, below 0.01 µM in the assay on ACHN renal and below 0.01 µM with NCI-H23 lung. Also, the TGI is 0.233 µM in the assay on SK-MEL-5 melanoma; 3.64 µM with UACC-62 melanoma; 0.266 µM in the assay with SF-539 CNS; 0.0619 µM in the assay on SF-268 CNS; 0.904 µM with NCI/ADR-RES ovarian; 3.65 µM in the assay on COLO 205 colon. Also, the TGI with ACHN renal was below 0.01 µM; in the assay on NCI-H23 lung it was 0.118 µM.
`S=C(SSC(=S)N1CCCCC1)N1CCCCC1`: the GI50 was 4.34 µM in the assay on SK-MEL-5 melanoma; 16 µM in the assay on UACC-62 melanoma; 14.2 µM in the assay on SF-539 CNS; 25.1 µM with SK-MEL-2 melanoma; 17.4 µM in the assay with SF-268 CNS; 15.7 µM in the assay with NCI/ADR-RES ovarian. Further, the figures for the GI50 in the assay with COLO 205 colon, with ACHN renal and with NCI-H23 lung were 11.8 µM, 15.5 µM and 16.3 µM, respectively. For the same compound, the TGI in the assay with SK-MEL-5 melanoma was found to be 59.8 µM; in the assay on UACC-62 melanoma it was 49.1 µM; in the assay with SF-539 CNS it was 32.6 µM; with SK-MEL-2 melanoma, 67.8 µM; with SF-268 CNS, 41.6 µM; in the assay with NCI/ADR-RES ovarian, 40.9 µM. The TGI with COLO 205 colon was 24.1 µM; in the assay on ACHN renal it was 41 µM; in the assay on NCI-H23 lung, 36 µM.
As to `CC1=C2C=CC(=O)C[C@@]2(C)CCC1`, the TGI with SK-MEL-5 melanoma, with UACC-62 melanoma, in the assay with SF-539 CNS, in the assay with SK-MEL-2 melanoma, with SF-268 CNS and in the assay with COLO 205 colon was above 100 µM in each case. The TGI in the assay on ACHN renal, in the assay with HCT-116 colon and in the assay on NCI-H23 lung was above 100 µM in each case.
For the compound `CC(=O)[CH-]C(=O)c1ccccc1.CC(=O)[CH-]C(=O)c1ccccc1.CC(=O)[CH-]C(=O)c1ccccc1.[Ga+3]`, the GI50 with SK-MEL-5 melanoma was 23.4 µM; in the assay with UACC-62 melanoma, 16.4 µM; in the assay on SF-539 CNS, 16.5 µM; in the assay with SK-MEL-2 melanoma, 10.8 µM; in the assay on SF-268 CNS it was 11.6 µM; in the assay with COLO 205 colon, 17.7 µM. The GI50 is 30.3 µM in the assay on ACHN renal, 15.5 µM in the assay with HCT-116 colon and 20.2 µM in the assay on NCI-H23 lung. Further, the TGI in the assay with SK-MEL-5 melanoma worked out at 65.6 µM; in the assay with UACC-62 melanoma, 30 µM; in the assay on SF-539 CNS, 32.3 µM; in the assay with SK-MEL-2 melanoma, 23.6 µM; in the assay with SF-268 CNS it was 26.9 µM; with COLO 205 colon, 32.3 µM. Moreover, the figures for the TGI in the assay on ACHN renal, with HCT-116 colon and in the assay on NCI-H23 lung were above 100 µM, 29.8 µM and 48.3 µM, respectively.
For `C=C(C)C(=O)Nc1ccc(-c2c(-c3ccc(Oc4nccc(C)n4)c(F)c3)c3c(N)ncnc3n2C)cc1`, the GI50 is 2.36 µM with SK-MEL-5 melanoma; 1.88 µM in the assay on SF-539 CNS; 2.7 µM in the assay with SK-MEL-2 melanoma; 1.67 µM with SF-268 CNS; 10.1 µM in the assay with NCI/ADR-RES ovarian; 3.79 µM in the assay with COLO 205 colon. For the same compound, the GI50 was 3.81 µM in the assay with ACHN renal, 5.05 µM in the assay with HCT-116 colon and 4.27 µM in the assay on NCI-H23 lung. Moreover, the TGI was 8.21 µM with SK-MEL-5 melanoma; 8.89 µM with SF-539 CNS; 9.74 µM with SK-MEL-2 melanoma; 16 µM in the assay on SF-268 CNS; 31 µM in the assay with NCI/ADR-RES ovarian; 13.8 µM with COLO 205 colon. Besides, the TGI in the assay on ACHN renal stood at 20.2 µM; in the assay with HCT-116 colon, 19.8 µM; in the assay with NCI-H23 lung, 18.4 µM.
With `CN(C)N=Nc1ccc(S(N)(=O)=O)cc1`, the TGI with SK-MEL-5 melanoma, in the assay with UACC-62 melanoma, in the assay with SF-539 CNS, with SK-MEL-2 melanoma, in the assay on SF-268 CNS and with COLO 205 colon was above 100 µM throughout. In addition, the TGI in the assay with ACHN renal, in the assay with HCT-116 colon and in the assay with NCI-H23 lung was above 100 µM each time.

The values are drawn from PubChem BioAssay (NCI).
